Source: patent US20230115350A1 (Cedilla Therapeutics, Inc., priority 2021, published 2023)
pIC50: −log10 of the molar value.

Assays:
His-Tev-Avi-TEAD1 = His-Tev-Avi-TEAD1 (Homo sapiens, UniProt P28347); test: TEAD mass modification assay (iMS); assay type: binding; conditions: 50 μM compound, 1 hour, room temperature
Experimental: Compound stock (10 mM) was diluted to 2.5 mM with DMSO and His-Tev-Avi-TEAD1 was diluted to 5 μM with Reaction Buffer (50 mM Tris pH 8.0, 150 mM NaCl, and 1 mM TCEP). Compound (1 μL) is incubated with 49 μL protein at room temperature for 1 hour (final compound concentration was 50 μM). The sample (20 μL) was shipped on dry ice to MSBioworks for iMS analysis.
This assay confirms whether or not TEAD is covalently bound to a test compound (i.e., whether the protein's mass is modified). […] Compounds 80 (see FIG. 2), 89 (see FIG. 3), 73 (see FIG. 4), 53 (see FIG. 5), and 59 (see FIG. 6) were also tested in this fashion.

[1] = biological target: TEAD1 protein (YAP Binding Domain) (Homo sapiens, UniProt P28347); test: TEAD1 lipid pocket compound displacement assay (TR-FRET, Cy5-probe); conditions: 60 minutes incubation at room temperature; TR-FRET 665 nm/620 nm; read-out: CDA IC50
How it was run: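 His-tagged TEAD1 YAP-binding domain pre-mixed with a Cy5-labelled lipid-pocket probe and Tb-anti-His antibody; compounds incubated with the complex 60 min at room temperature. TR-FRET read at 665/620 nm; IC50 from 4-parameter non-linear fit of probe displacement.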

NCI-H226 = test: 72H TEAD Proliferation Assay (Cell Titer-Glo 2.0); assay type: cell-based; conditions: CTG 2.0, cell line not given
Experimental: The effect of TEAD inhibition on cell proliferation was assayed using Cell Titer Glo (CTG) 2.0 to measure response in mesothelioma cell lines NCI-H226 (ATCC, #CRL-5826) and NCI-H28 (ATCC, #CRL-5820).
The 72H TEAD Proliferation assay utilizes Cell Titer-Glo 2.0 (Promega, #G9243) to measure the proliferation of cells in the presence or absence of compound. Cell Titer-Glo 2.0 determines the amount of viable cells by quantifying ATP (an indication of metabolically active cells). It utilizes the conversion of Luciferin to Oxyluciferin and a luminescent signal with the use of ATP to report the quantity of viable cells in culture. Within cells that are continually growing, ATP is being synthesized to meet their metabolic demands, meanwhile the opposite is true for cells that are dying or slowing down their proliferation and either no longer using ATP or are using less, respectively. The NF2-deficient NCI-H226 has been genetically validated as a cell line that is sensitive to TEAD inhibition. The NF2-wild type NCI-H28 has been genetically validated as a cell line that is not sensitive to TEAD inhibition and grows independently of TEAD activity.
Compounds were screened against the responsive NCI-H226 cell line to assess the compounds' ability to inhibit TEAD and cell growth. Compounds were also screened against the non-responsive NCI-H28 cell line to ascertain whether the inhibition of cell growth was due to inhibition of the target TEAD or whether the inhibition was due to off-target cytotoxicity.
1) Assay ready plates (ARPs) were prepared by Echo acoustic liquid handler. For each compound, duplicate of 10-point half-log dilution series were dispensed in a 384-well microplate (Corning 3571).
5) NCI-H226 or NCI-H28 cells were harvested from culture in Assay Medium 1 and the multidrop Combi reagent dispenser was used to seed cells at 500 cells per 50 ul in each well of the ARPs and one Corning 3571 plate without compounds for Time 0 (TO) readout.
6) The TO plate was incubated for 2 hours at 37° C. with 5% CO2 to allow cells to settle, then the CTG Assay was performed.
7) All ARPs were incubated for 72 hours at 37° C. with 5% CO2, then the CTG Assay was performed for Time 72H (T72) readout.
8) CTG Assay: Bravo liquid handler (Agilent) was used to add 25 ul of CTG 2.0 to all columns of the plate except for Column 24, which was used to subtract out the background. After CTG addition, plates were placed on shaker at 800 RPM for 15 minutes at room temperature and kept in the dark. Luminescence was measured using EnVision multilabel plate reader with ultra-sensitive detection module.
9) Data Analysis: First background luminescence (no CTG wells) was subtracted from luminescence reading of all wells, then TO luminescence was subtracted from T72 luminescence. To compare anti-proliferative effect of compounds, GI50 was obtained by fitting dose response curves with nonlinear regression curve fit.

His-Tev-Avi-TEAD1, sequence (P28347 209-426 limits assumed): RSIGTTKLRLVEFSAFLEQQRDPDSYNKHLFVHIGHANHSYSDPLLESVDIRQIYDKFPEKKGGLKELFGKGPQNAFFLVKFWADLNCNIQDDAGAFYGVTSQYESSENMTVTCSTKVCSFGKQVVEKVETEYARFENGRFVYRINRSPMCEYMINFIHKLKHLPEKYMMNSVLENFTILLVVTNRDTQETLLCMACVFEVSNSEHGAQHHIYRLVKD
TEAD1 protein (YAP Binding Domain), sequence (P28347 209-426 limits assumed): as above

Row | SMILES | mass modification of TEAD1 (covalent binding) (His-Tev-Avi-TEAD1) | pIC50 [1] | GI50 (NCI-H226; Homo sapiens, NCI-H226, 72 h) | mass of the protein treated with compound (His-Tev-Avi-TEAD1; untreated protein m/z 30,030.70) | GI50 (NCI-H226)
1 | C=CC(=O)Nc1ccc(OCc2ccccc2Cl)c(F)c1 [Compound 53, N-(4-((2-chlorobenzyl)oxy)-3-fluorophenyl)acrylamide] | mass modification of TEAD1 | 5.70 to 6.30 | 1000 to 3000 nM |  | 
2 | C=CC(=O)Nc1ccc(OCC2CCC(F)(F)CC2)c(F)c1 [Compound 58, N-(4-((4,4-difluorocyclohexyl)methoxy)-3-fluorophenyl)acrylamide] | mass shift indicates modification of TEAD1 | ≥ 6.60 | 250 to 1000 nM | 30,344.29 m/z | 
3 | C=CC(=O)Nc1ccc(OCC2CCC(C(F)(F)F)CC2)c(F)c1 (stereo not shown) [Compound 59, N-(3-fluoro-4-((4-(trifluoromethyl)cyclohexyl)methoxy)phenyl)acrylamide] | mass modification of TEAD1 | ≥ 6.60 | > 3000 nM |  | 
4 | C=CC(=O)Nc1ccc(OCc2ccc(C(F)(F)F)nc2)c(F)c1 [Compound 73, N-(3-fluoro-4-((6-(trifluoromethyl)pyridin-3-yl)methoxy)phenyl)acrylamide] | mass modification of TEAD1 | 5.70 to 6.30 | 250 to 1000 nM |  | 
5 | C=CC(=O)Nc1ccc(OCc2cccc(Cl)c2Cl)c(F)c1 [Compound 80, N-(4-((2,3-dichlorobenzyl)oxy)-3-fluorophenyl)acrylamide] | mass modification of TEAD1 | ≥ 6.60 | 250 to 1000 nM |  | 
6 | C=CC(=O)Nc1ccc(C2COc3ccccc3C2)c(F)c1 (stereo not shown) [Compound 120, N-(4-(chroman-3-yl)-3-fluorophenyl)acrylamide] |  | 6.30 to 6.60 | > 3000 nM |  | 
7 | C=CC(=O)Nc1ccc(C2COc3ccccc3N2)c(F)c1 (stereo not shown) [Compound 121, N-(4-(3,4-dihydro-2H-benzo[b][1,4]oxazin-3-yl)-3-fluorophenyl)acrylamide] |  | 5.70 to 6.30 | > 3000 nM |  | 
8 | C=CC(=O)Nc1ccc(C2COc3ccccc3O2)c(F)c1 (stereo not shown) [Compound 122, N-(4-(2,3-dihydrobenzo[b][1,4]dioxin-2-yl)-3-fluorophenyl)acrylamide] |  | ≥ 6.60 | > 3000 nM |  | 
9 | C=CC(=O)Nc1ccc(OC(C)c2cccc(F)c2)c(F)c1 (stereo not shown) [Compound 124, N-(3-fluoro-4-(1-(3-fluorophenyl)ethoxy)phenyl)acrylamide] |  | 6.30 to 6.60 | > 3000 nM |  | 
10 | CN(C)C/C=C/C(=O)Nc1ccc(OCc2cccc(F)c2)c(F)c1 [Compound 125, (E)-4-(dimethylamino)-N-(3-fluoro-4-((3-fluorobenzyl)oxy)phenyl)but-2-enamide] |  | < 5.70 | > 3000 nM |  | 
11 | C=C=CC(=O)Nc1ccc(OCc2cccc(F)c2)c(F)c1 [Compound 126] |  | ≥ 6.60 | 1000 to 3000 nM |  | 
12 | C=CC(=O)Nc1cnc(OCc2cccc(F)c2)c(F)c1 [Compound 129, N-(5-fluoro-6-((3-fluorobenzyl)oxy)pyridin-3-yl)acrylamide] |  | 6.30 to 6.60 | > 3000 nM |  | 
13 | C=CC(=O)Nc1cc2nc(CCC(C)C)oc2cc1F [Compound 132, N-(6-fluoro-2-isopentylbenzo[d]oxazol-5-yl)acrylamide] |  | 6.30 to 6.60 | ≤ 250 nM |  | 
14 | C=CC(=O)Nc1cc2nc(CC3CC3)oc2cc1F [Compound 134, N-(2-(cyclopropylmethyl)-6-fluorobenzo[d]oxazol-5-yl)acrylamide] |  | < 5.70 | 1000 to 3000 nM |  | 
15 | C=CC(=O)Nc1cc2nc(C3CCC(F)(F)CC3)oc2cc1F [Compound 135, N-(2-(4,4-difluorocyclohexyl)-6-fluorobenzo[d]oxazol-5-yl)acrylamide] |  | 5.70 to 6.30 |  |  | ≤ 250 nM
16 | C=CC(=O)Nc1cc2nc(CC3CCC(F)(F)CC3)oc2cc1F [Compound 136, N-(2-((4,4-difluorocyclohexyl)methyl)-6-fluorobenzo[d]oxazol-5-yl)acrylamide] |  | 6.30 to 6.60 | 250 to 1000 nM |  | 
17 | C=CC(=O)Nc1cc2nc(Cc3ccccc3)oc2cc1F [Compound 137, N-(2-benzyl-6-fluorobenzo[d]oxazol-5-yl)acrylamide] |  | 6.30 to 6.60 | > 3000 nM |  | 
18 | C=CC(=O)Nc1cc2nc(C3CCC(F)(F)CC3)oc2cc1F [Compound 138, N-(2-(4,4-difluorocyclohexyl)-6-fluorobenzo[d]oxazol-5-yl)acrylamide] |  | 6.30 to 6.60 |  |  | 1000 to 3000 nM
19 | C=CC(=O)Nc1cc2nc(CCC(F)(F)C(F)(F)F)oc2cc1F [Compound 140, N-(6-fluoro-2-(3,3,4,4,4-pentafluorobutyl)benzo[d]oxazol-5-yl)acrylamide] |  | ≥ 6.60 | ≤ 250 nM |  | 
20 | C=CC(=O)Nc1ccc2oc(CCCC(C)C)nc2c1F [Compound 141, N-(4-fluoro-2-(4-methylpentyl)benzo[d]oxazol-5-yl)acrylamide] |  | 6.30 to 6.60 | 250 to 1000 nM |  | 
21 | C=CC(=O)Nc1cc2nc(Cc3ccc(F)cc3)oc2cc1F [Compound 142, N-(6-fluoro-2-(4-fluorobenzyl)benzo[d]oxazol-5-yl)acrylamide] |  | 5.70 to 6.30 | 1000 to 3000 nM |  | 
22 | C=CC(=O)Nc1cc2nc(CC(C)(C)C)oc2cc1F [Compound 143, N-(6-fluoro-2-neopentylbenzo[d]oxazol-5-yl)acrylamide] |  | 5.70 to 6.30 | 250 to 1000 nM |  | 
23 | C=CC(=O)Nc1cc2nc(CCC(F)(F)F)oc2cc1F [Compound 144, N-(6-fluoro-2-(3,3,3-trifluoropropyl)benzo[d]oxazol-5-yl)acrylamide] |  | < 5.70 | 250 to 1000 nM |  | 
24 | C=CC(=O)Nc1cc2nc(CC3CC3C)oc2cc1F (stereo not shown) [Compound 145, N-(6-fluoro-2-((2-methylcyclopropyl)methyl)benzo[d]oxazol-5-yl)acrylamide] |  | 6.30 to 6.60 | ≤ 250 nM |  | 
25 | C=CC(=O)Nc1ccc2c(c1)OC(c1cccc(C(F)(F)F)c1)O2 (stereo not shown) [Compound 146, N-(2-(3-(trifluoromethyl)phenyl)benzo[d][1,3]dioxol-5-yl)acrylamide] |  | ≥ 6.60 | ≤ 250 nM |  | 
26 | C=C(F)C(=O)Nc1ccc2c(c1)OC(c1cccc(C(F)(F)F)c1)O2 (stereo not shown) [Compound 148, 2-fluoro-N-(2-(3-(trifluoromethyl)phenyl)benzo[d][1,3]dioxol-5-yl)acrylamide] |  | 5.70 to 6.30 | 250 to 1000 nM |  | 
27 | C=C(F)C(=O)Nc1ccc(OCC2CCC(F)(F)CC2)c(F)c1 [Compound 149, N-(4-((4,4-difluorocyclohexyl)methoxy)-3-fluorophenyl)-2-fluoroacrylamide] |  | 6.30 to 6.60 | ≤ 250 nM |  | 
28 | C=CC(=O)Nc1ccc(-c2ccc(C(F)(F)F)cc2)c2ncccc12 [Compound 150, N-(8-(4-(trifluoromethyl)phenyl)quinolin-5-yl)acrylamide] |  | ≥ 6.60 | ≤ 250 nM |  | 
29 | C=CC(=O)Nc1ccc(-c2ccc(C(C)(C)C)cc2)c2ncccc12 [Compound 151, N-(8-(4-(tert-butyl)phenyl)quinolin-5-yl)acrylamide] |  | 6.30 to 6.60 | ≤ 250 nM |  | 
